Consider 1 compound from paper PMC9911596 (Nature Communications, 2023).

Numbering of substitutions follows the chain as printed.

Test [1] has as its target T1, Vtc1/Vtc3/Vtc4 complex (VTC complex) (Saccharomyces cerevisiae, UniProt P47075+Q02725, P47075:K129A/P47075:K132A/P47075:K136A).
T1 construct: full-length subunits co-expressed in Expi293F; Vtc1 C-terminal HA, Vtc3 N-terminal 3xFlag, Vtc4 C-terminal 2xStrep; detergent-purified; 3:1:1 pentamer; with Vacuolar transporter chaperone complex subunit 1
T1 sequence (P47075 1-721 K129A/K132A/K136A): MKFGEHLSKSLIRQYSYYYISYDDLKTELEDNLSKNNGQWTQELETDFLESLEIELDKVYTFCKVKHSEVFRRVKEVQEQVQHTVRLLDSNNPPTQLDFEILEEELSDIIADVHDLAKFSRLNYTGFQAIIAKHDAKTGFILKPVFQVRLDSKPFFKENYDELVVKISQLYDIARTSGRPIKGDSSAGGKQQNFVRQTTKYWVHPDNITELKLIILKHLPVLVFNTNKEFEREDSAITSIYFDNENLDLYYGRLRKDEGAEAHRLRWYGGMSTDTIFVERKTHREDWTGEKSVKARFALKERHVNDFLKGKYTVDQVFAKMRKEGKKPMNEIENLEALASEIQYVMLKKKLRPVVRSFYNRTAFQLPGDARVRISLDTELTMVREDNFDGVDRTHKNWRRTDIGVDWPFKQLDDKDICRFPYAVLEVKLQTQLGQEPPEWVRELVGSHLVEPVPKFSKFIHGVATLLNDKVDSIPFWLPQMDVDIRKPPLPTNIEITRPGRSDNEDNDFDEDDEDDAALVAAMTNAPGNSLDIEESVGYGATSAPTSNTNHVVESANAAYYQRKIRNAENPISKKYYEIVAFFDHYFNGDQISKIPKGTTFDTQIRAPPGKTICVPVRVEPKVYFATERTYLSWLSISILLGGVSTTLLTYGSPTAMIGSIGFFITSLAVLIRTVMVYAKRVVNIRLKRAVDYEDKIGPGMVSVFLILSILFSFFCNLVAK
T1 sequence (Q02725 1-835): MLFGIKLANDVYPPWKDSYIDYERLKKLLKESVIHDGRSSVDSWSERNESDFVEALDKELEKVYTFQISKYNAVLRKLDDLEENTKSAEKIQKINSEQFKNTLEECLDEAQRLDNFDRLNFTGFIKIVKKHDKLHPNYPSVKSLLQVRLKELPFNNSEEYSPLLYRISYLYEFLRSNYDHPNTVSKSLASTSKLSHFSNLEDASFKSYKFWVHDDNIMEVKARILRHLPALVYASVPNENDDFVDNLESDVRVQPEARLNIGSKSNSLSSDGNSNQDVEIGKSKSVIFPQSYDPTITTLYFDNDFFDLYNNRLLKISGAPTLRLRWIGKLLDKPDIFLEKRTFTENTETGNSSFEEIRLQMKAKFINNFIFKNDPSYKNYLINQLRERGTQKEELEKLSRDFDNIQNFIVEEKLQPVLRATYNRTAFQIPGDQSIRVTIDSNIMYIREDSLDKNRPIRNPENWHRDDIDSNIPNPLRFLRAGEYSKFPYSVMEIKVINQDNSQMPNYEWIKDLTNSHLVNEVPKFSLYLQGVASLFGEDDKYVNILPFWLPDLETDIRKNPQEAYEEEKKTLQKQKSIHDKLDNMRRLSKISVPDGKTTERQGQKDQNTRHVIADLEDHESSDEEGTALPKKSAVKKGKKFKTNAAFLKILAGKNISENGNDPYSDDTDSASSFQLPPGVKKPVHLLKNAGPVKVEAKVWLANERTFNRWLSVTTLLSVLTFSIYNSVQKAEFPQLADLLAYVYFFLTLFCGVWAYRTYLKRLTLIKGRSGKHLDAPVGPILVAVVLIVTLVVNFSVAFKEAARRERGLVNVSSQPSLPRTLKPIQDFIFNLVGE
T1 sequence (P40046 2-129 partner): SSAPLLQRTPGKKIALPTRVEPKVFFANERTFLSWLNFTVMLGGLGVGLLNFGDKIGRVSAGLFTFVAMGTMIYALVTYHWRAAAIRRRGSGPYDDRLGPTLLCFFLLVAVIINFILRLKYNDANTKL
The experiment in a line: polyP synthesis, TBE-PAGE. The format is biochemical. To be noted: activator; 15 mM ATP, 10 mM MgCl2, 1 mM MnCl2, 0.5 mM pyrophosphate, 27 °C, 4 h; SPX KSC mutant.

Test [2] deals with T2, Vtc1/Vtc3/Vtc4 complex (VTC complex) (Saccharomyces cerevisiae, UniProt P47075+Q02725, P47075:Y22F/P47075:K26A/P47075:K133A).
T2 construct: full-length subunits co-expressed in Expi293F; Vtc1 C-terminal HA, Vtc3 N-terminal 3xFlag, Vtc4 C-terminal 2xStrep; detergent-purified; 3:1:1 pentamer; with Vacuolar transporter chaperone complex subunit 1
T2 sequence (P47075 1-721 Y22F/K26A/K133A): T1 sequence (P47075 1-721 K129A/K132A/K136A) with Y22F, K26A, A129K, A132K, K133A, A136K
T2 sequence (Q02725 1-835): T1 sequence (Q02725 1-835)
T2 sequence (P40046 2-129 partner): T1 sequence (P40046 2-129 partner)
As to the kind of experiment: polyP synthesis, TBE-PAGE. The format is biochemical. To be noted: activator; 15 mM ATP, 10 mM MgCl2, 1 mM MnCl2, 0.5 mM pyrophosphate, 27 °C, 4 h; SPX PBC mutant.

For the compound `O=P(O)(O)O[C@H]1[C@H](OP(=O)(O)O)[C@@H](OP(=O)(O)O)[C@H](OP(=O)(O)O)[C@@H](OP(=O)(O)O)[C@H]1OP(=O)(O)O` [InsP6], the “polyP synthesis, TBE-PAGE” value in test [1] and in test [2] was “both reduced InsP6-stimulated polyP synthesis” in each case.
